Laboratory results as given in patent publication US11697650B2, “Compounds having tetrahydroindolizine-1-carboxamide as BCL-2 inhibitors” (Eil Therapeutics, Inc., priority 2021, dated 2023).

What was measured:
MOLT-4 cells = test: Cell viability assay (CellTiter-Glo), MOLT-4; assay type: cell-based; conditions: Homo sapiens, 72 h, 3 days, read-out: MOLT-4 (CC50 code)
Method: (§1) Culture medium for HEK293—DMEM (PanEco, Cat #C420) was used. RPMI-1640 (PanEco, Cat #C363) was used for the rest of the cell lines.
(§2) Compounds were prepared as 200× stocks with serial dilution in 100% DMSO with a final concentration of 1×.
(§3) […] were dispersed in 40 μL aliquots in 384-well plates at a concentration of 2000 cells per well for HEK293 and at a concentration of 4000 cells per well for the rest of the cell lines using a robotic station Biomek (Beckman). Before adding compounds, the cells were incubated at 37° C. (HEK293 were incubated for a day before adding compounds).
(§4) A dilution plate was prepared by pouring 78 μL of the appropriate culture medium using a robotic station Biomek (Beckman). Sequentially, using a robotic station, 2 μL of substances were taken and added to 78 μL of culture medium (dilution of compounds 40×). 10 μL aliquots were taken and added to the plates of the cells (dilution of compounds 5×). The plates were incubated for 3 days at a temperature 37° C. After 3 days, 10 μL of CellTiter-Glo (Promega) was added to the cells and the luminescence was measured.

[1] = Cell viability assay (CellTiter-Glo), HEK293; assay type: cell-based; conditions: human, HEK293 cells, read-out: HEK293 (CC50 code)
Method: as §1, §2, §3, §4

BCL-2 = BCL-2 (Homo sapiens (Human), UniProt P10415); test: BCL-2 TR-FRET Assay (primary PPI inhibition); assay type: binding; conditions: 60 min incubation; read-out: BCL2 (IC50 code, BCL-2 TR-FRET)
Method: BCL-2 TR-FRET Assay (BPS Bioscience, #50222)
(§5) The following assay concentrations and times were used: 3 ng BCL-2, 5 μl of 1:100 anti-His Tb-labeled donor, 5 μl of 1:100 Dye-labeled acceptor, 5 μl of 1:40 BCL-2 Peptide Ligand, and 2 ul of test compound, with 60 min incubation time. The results of the assay were read using a Clariostar (BMG Labtech) plate reader with the following parameters: TR FRET, 340ex/620 and 665em; 60 μsec Delay; and 500 μsec integration.

[2] = system: caspase-3 and -7 activities in RS4-11 cells; test: Caspase-3/7 activation (Caspase-Glo 3/7) in RS4-11 cells; assay type: cell-based; conditions: Homo sapiens, 3.5 h incubation, read-out: Cas-3/7 (EC50 code)
Method: The Caspase-Glo 3/7 Assay is homogeneous, luminescent assay that measures caspase-3 and -7 activities. The assay provides a luminogenic caspase-3/7 substrate, which contains the tetrapeptide sequence DEVD, in a reagent optimized for caspase activity.
Incubate RS4-11 cells with varying concentrations of test compounds for 3.5 h in a humidified incubator at 37° C. and 5% CO2 and 30 min at r.t. Add 15 μl Caspase-Glo reagent to each well and incubate the plate for 30 min at r.t. Read on ClarioStar Plus instrument.
Promega Caspase-Glo (Promega, #8212); Frozen RS4-11 cells; 384-well white plate (Corning, #3570).
ClarioStar Plus; Biomek FX for liquid handling (Beckman Coulter).

MCL-1 = MCL-1 (Homo sapiens (Human), UniProt Q07820); test: MCL-1 TR-FRET Assay (primary PPI inhibition); assay type: binding; conditions: 60 min incubation; read-out: MCL1 IC50
Method: MCL-1 TR-FRET Assay (BPS Bioscience, #79506)
as §5, with “used: 10” for “used: 3”, “ng MCL-1,” for “ng BCL-2,”, “of 1:200” for “of 1:100”, “of 1:10 MCL-1” for “of 1:40 BCL-2”, “2 μl” for “2 ul”

RS4-11 cells = test: Cell viability assay (CellTiter-Glo), RS4-11; assay type: cell-based; conditions: Homo sapiens, 72 h, 3 days, read-out: RS4-11 (CC50 code)
Method: as §1, §2, §3, §4

BCL-XL = BCL-XL (Homo sapiens (Human), UniProt Q07817); test: BCL-XL TR-FRET Assay (primary PPI inhibition); assay type: binding; conditions: 60 min incubation; read-out: BCLxL (IC50 code, BCL-XL TR-FRET)
Method: BCL-XL TR-FRET Assay (BPS Bioscience, #50223)
as §5, with “used: 10.5” for “used: 3”, “ng BCL-XL,” for “ng BCL-2,”, “of 1:80 BCL-XL” for “of 1:40 BCL-2”, “2 μl” for “2 ul”

Chain of BCL-XL (Q07817 whole entry): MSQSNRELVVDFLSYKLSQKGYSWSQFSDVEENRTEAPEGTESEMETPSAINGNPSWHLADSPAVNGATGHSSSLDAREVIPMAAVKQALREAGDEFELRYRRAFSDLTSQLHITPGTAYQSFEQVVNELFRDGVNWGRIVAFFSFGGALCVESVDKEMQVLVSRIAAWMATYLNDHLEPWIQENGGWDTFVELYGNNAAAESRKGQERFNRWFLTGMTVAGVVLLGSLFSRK
Chain of MCL-1 (Q07820 whole entry): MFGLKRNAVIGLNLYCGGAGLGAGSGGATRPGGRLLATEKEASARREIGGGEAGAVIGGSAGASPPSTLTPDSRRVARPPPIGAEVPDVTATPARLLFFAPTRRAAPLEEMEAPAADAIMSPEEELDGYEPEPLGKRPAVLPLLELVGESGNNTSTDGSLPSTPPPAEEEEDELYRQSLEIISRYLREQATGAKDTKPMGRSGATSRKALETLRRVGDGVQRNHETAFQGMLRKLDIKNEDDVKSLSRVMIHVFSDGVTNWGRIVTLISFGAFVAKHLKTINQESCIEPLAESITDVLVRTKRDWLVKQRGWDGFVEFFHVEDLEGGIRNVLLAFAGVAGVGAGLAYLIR
Chain of BCL-2 (P10415 whole entry): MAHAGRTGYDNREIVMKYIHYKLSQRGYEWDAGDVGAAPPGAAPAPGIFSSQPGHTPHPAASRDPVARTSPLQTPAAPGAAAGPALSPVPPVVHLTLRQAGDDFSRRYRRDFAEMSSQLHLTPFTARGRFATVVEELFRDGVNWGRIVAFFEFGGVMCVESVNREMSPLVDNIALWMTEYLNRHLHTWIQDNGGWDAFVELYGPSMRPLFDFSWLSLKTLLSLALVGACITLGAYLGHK

Structure (SMILES)	CC50 (MOLT-4 cells)	CC50 at 3 days [1]	IC50 (BCL-2)	EC50 [2]	IC50 (MCL-1)	CC50 (RS4-11 cells)	IC50 (BCL-XL)
COCCNC(=O)c1cccc(CN(C(=O)c2cc(-c3cc4c(cc3C(=O)N3Cc5ccccc5C[C@H]3CN3CCOCC3)OCO4)n3c2CCCC3)c2ccc(O)cc2)c1 [Compound 2, N-(4-hydroxyphenyl)-N-{3-[(2-methoxyethyl)carbamoyl]benzyl}-3-(6-{[(3S)-3-(morpholin-4-ylmethyl)-3,4-dihydroisoquinolin-2(1H)-yl]carbonyl}-1,3-benzodioxol-5-yl)-5,6,7,8-tetrahydroindolizine-1-carboxamide]	> 10 µM	≤ 10 µM	≤ 0.005 µM	> 0.25 µM	> 100 µM	0.1 to 0.2 µM	
O=C(c1cc(-c2cc3c(cc2C(=O)N2Cc4ccccc4C[C@H]2CN2CCOCC2)OCO3)n2c1CCCC2)N(Cc1c(Cl)ccc(F)c1F)c1ccc(O)cc1 [Compound 35, N-(6-chloro-2,3-difluorobenzyl)-N-(4-hydroxyphenyl)-3-(6-{[(3S)-3-(morpholin-4-ylmethyl)-3,4-dihydroisoquinolin-2(1H)-yl]carbonyl}-1,3-benzodioxol-5-yl)-5,6,7,8-tetrahydroindolizine-1-carboxamide]	≤ 2 µM	> 25 µM	0.01 to 0.05 µM	> 0.25 µM		> 0.2 µM	> 4 µM
COc1c(C)cnc(CN(C(=O)c2cc(-c3cc4c(cc3C(=O)N3Cc5ccccc5C[C@H]3CN3CCOCC3)OCO4)n3c2CCCC3)c2ccc(O)cc2)c1C [Compound 23, N-(4-hydroxyphenyl)-N-[(4-methoxy-3,5-dimethylpyridin-2-yl)methyl]-3-(6-{[(3S)-3-(morpholin-4-ylmethyl)-3,4-dihydroisoquinolin-2(1H)-yl]carbonyl}-1,3-benzodioxol-5-yl)-5,6,7,8-tetrahydroindolizine-1-carboxamide]	> 10 µM	10 to 25 µM	0.01 to 0.05 µM	> 0.25 µM		> 0.2 µM	> 4 µM
O=C(c1cc(-c2cc3c(cc2C(=O)N2Cc4ccccc4C[C@H]2CN2CCOCC2)OCO3)n2c1CCCC2)N(Cc1cccc(F)c1)c1ccc(O)cc1 [Compound 21, N-(3-fluorobenzyl)-N-(4-hydroxyphenyl)-3-(6-{[(3S)-3-(morpholin-4-ylmethyl)-3,4-dihydroisoquinolin-2(1H)-yl]carbonyl}-1,3-benzodioxol-5-yl)-5,6,7,8-tetrahydroindolizine-1-carboxamide]	> 10 µM	> 25 µM	0.01 to 0.05 µM	> 0.25 µM		0.1 to 0.2 µM	2 to 4 µM
O=C(c1cc(-c2cc3c(cc2C(=O)N2Cc4ccccc4C[C@H]2CN2CCOCC2)OCO3)n2c1CCCC2)N(Cc1ccccc1-c1ccccc1)c1ccc(O)cc1 [Compound 18, N-(biphenyl-2-ylmethyl)-N-(4-hydroxyphenyl)-3-(6-{[(3S)-3-(morpholin-4-ylmethyl)-3,4-dihydroisoquinolin-2(1H)-yl]carbonyl}-1,3-benzodioxol-5-yl)-5,6,7,8-tetrahydroindolizine-1-carboxamide]	2 to 10 µM	> 25 µM	0.01 to 0.05 µM	> 0.25 µM		> 0.2 µM	≤ 2 µM
Cc1ccc(CN(C(=O)c2cc(-c3cc4c(cc3C(=O)N3Cc5ccccc5C[C@H]3CN3CCOCC3)OCO4)n3c2CCCC3)c2ccc(O)cc2)cc1 [Compound 20, N-(4-hydroxyphenyl)-N-(4-methylbenzyl)-3-(6-{[(3S)-3-(morpholin-4-ylmethyl)-3,4-dihydroisoquinolin-2(1H)-yl]carbonyl}-1,3-benzodioxol-5-yl)-5,6,7,8-tetrahydroindolizine-1-carboxamide]	2 to 10 µM	≤ 10 µM	0.005 to 0.01 µM	> 0.25 µM		0.1 to 0.2 µM	2 to 4 µM
CN1CCN(C(=O)c2cccc(CN(C(=O)c3cc(-c4cc5c(cc4C(=O)N4Cc6ccccc6C[C@H]4CN4CCOCC4)OCO5)n4c3CCCC4)c3ccc(O)cc3)c2)CC1 [Compound 10, N-(4-hydroxyphenyl)-N-{3-[(4-methylpiperazin-1-yl)carbonyl]benzyl}-3-(6-{[(3S)-3-(morpholin-4-ylmethyl)-3,4-dihydroisoquinolin-2(1H)-yl]carbonyl}-1,3-benzodioxol-5-yl)-5,6,7,8-tetrahydroindolizine-1-carboxamide]	> 10 µM	10 to 25 µM	0.005 to 0.01 µM	> 0.25 µM	> 100 µM	> 0.2 µM	
COc1ccccc1CN(C(=O)c1cc(-c2cc3c(cc2C(=O)N2Cc4ccccc4C[C@H]2CN2CCOCC2)OCO3)n2c1CCCC2)c1ccc(O)cc1 [Compound 31, N-(4-hydroxyphenyl)-N-(2-methoxybenzyl)-3-(6-{[(3S)-3-(morpholin-4-ylmethyl)-3,4-dihydroisoquinolin-2(1H)-yl]carbonyl}-1,3-benzodioxol-5-yl)-5,6,7,8-tetrahydroindolizine-1-carboxamide]	≤ 2 µM	> 25 µM	≤ 0.005 µM	≤ 0.1 µM		≤ 0.1 µM	≤ 2 µM
CN(C)CCNC(=O)c1cccc(CN(C(=O)c2cc(-c3cc4c(cc3C(=O)N3Cc5ccccc5C[C@H]3CN3CCOCC3)OCO4)n3c2CCCC3)c2ccc(O)cc2)c1 [Compound 6, N-(3-{[2-(dimethylamino)ethyl]carbamoyl}benzyl)-N-(4-hydroxyphenyl)-3-(6-{[(3S)-3-(morpholin-4-ylmethyl)-3,4-dihydroisoquinolin-2(1H)-yl]carbonyl}-1,3-benzodioxol-5-yl)-5,6,7,8-tetrahydroindolizine-1-carboxamide]	> 10 µM	10 to 25 µM	≤ 0.005 µM	> 0.25 µM	> 100 µM	> 0.2 µM	
Cc1cccc(CN(C(=O)c2cc(-c3cc4c(cc3C(=O)N3Cc5ccccc5C[C@H]3CN3CCOCC3)OCO4)n3c2CCCC3)c2ccc(O)cc2)c1 [Compound 14, N-(4-hydroxyphenyl)-N-(3-methylbenzyl)-3-(6-{[(3S)-3-(morpholin-4-ylmethyl)-3,4-dihydroisoquinolin-2(1H)-yl]carbonyl}-1,3-benzodioxol-5-yl)-5,6,7,8-tetrahydroindolizine-1-carboxamide]	2 to 10 µM	> 25 µM	0.005 to 0.01 µM	> 0.25 µM		≤ 0.1 µM	2 to 4 µM
O=C(c1cc(-c2cc3c(cc2C(=O)N2Cc4ccccc4C[C@H]2CN2CCOCC2)OCO3)n2c1CCCC2)N(Cc1c(F)cccc1F)c1ccc(O)cc1 [Compound 19, N-(2,6-difluorobenzyl)-N-(4-hydroxyphenyl)-3-(6-{[(3S)-3-(morpholin-4-ylmethyl)-3,4-dihydroisoquinolin-2(1H)-yl]carbonyl}-1,3-benzodioxol-5-yl)-5,6,7,8-tetrahydroindolizine-1-carboxamide]	2 to 10 µM	> 25 µM	0.005 to 0.01 µM	> 0.25 µM		> 0.2 µM	> 4 µM
